# From PubChem BioAssay (NCI)
#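 Compound exposure: 48 hours, 5 concentrations, 96-well plates. GI50 marks 50% less growth. The concentration for full growth arrest is given as TGI.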
# Tests used:
# Experiment in all cases: NCI-60 cell line screen, 48 h
# HCT-116 colon = test system: HCT-116 colon
# HOP-92 NSCLC = test system: HOP-92 NSCLC
# SK-MEL-5 melanoma = test system: SK-MEL-5 melanoma
# SK-OV-3 ovarian = test system: SK-OV-3 ovarian
# SNB-75 CNS = test system: SNB-75 CNS
# HS 578T breast = test system: HS 578T breast
# SK-MEL-2 melanoma = test system: SK-MEL-2 melanoma
# RPMI-8226 leukemia = test system: RPMI-8226 leukemia
# COLO 205 colon = test system: COLO 205 colon
# M14 melanoma = test system: M14 melanoma
# NCI/ADR-RES ovarian = test system: NCI/ADR-RES ovarian
# T-47D breast = test system: T-47D breast
# HCT-15 colon = test system: HCT-15 colon
# NCI-H460 lung = test system: NCI-H460 lung
# SF-268 CNS = test system: SF-268 CNS
# SW-620 colon = test system: SW-620 colon
# MDA-MB-435 = test system: MDA-MB-435
# IGROV1 ovarian = test system: IGROV1 ovarian
# MDA-MB-231 breast = test system: MDA-MB-231 breast
# NCI-H23 lung = test system: NCI-H23 lung
# SNB-19 CNS = test system: SNB-19 CNS
# HT29 colon = test system: HT29 colon
# A549 NSCLC = test system: A549 NSCLC
# U251 CNS = test system: U251 CNS
# UO-31 renal = test system: UO-31 renal
# KM12 colon = test system: KM12 colon
# HOP-62 NSCLC = test system: HOP-62 NSCLC
# NCI-H522 lung = test system: NCI-H522 lung
# UACC-257 melanoma = test system: UACC-257 melanoma
# LOX IMVI melanoma = test system: LOX IMVI melanoma
# CCRF-CEM leukemia = test system: CCRF-CEM leukemia
# A498 renal = test system: A498 renal
# 786-0 renal = test system: 786-0 renal
# SN12C renal = test system: SN12C renal
# HCC-2998 colon = test system: HCC-2998 colon
# DU-145 prostate = test system: DU-145 prostate
# PC-3 prostate = test system: PC-3 prostate
# TK-10 renal = test system: TK-10 renal
# BT-549 breast = test system: BT-549 breast
# OVCAR-3 ovarian = test system: OVCAR-3 ovarian
# SF-295 CNS = test system: SF-295 CNS
# ACHN renal = test system: ACHN renal
# HL-60(TB) leukemia = test system: HL-60(TB) leukemia
# UACC-62 melanoma = test system: UACC-62 melanoma
# SR leukemia = test system: SR leukemia
# MOLT-4 leukemia = test system: MOLT-4 leukemia
# MCF7 breast = test system: MCF7 breast
# OVCAR-8 ovarian = test system: OVCAR-8 ovarian
# SK-MEL-28 melanoma = test system: SK-MEL-28 melanoma
# OVCAR-4 ovarian = test system: OVCAR-4 ovarian
# K-562 leukemia = test system: K-562 leukemia
# OVCAR-5 ovarian = test system: OVCAR-5 ovarian
# CAKI-1 renal = test system: CAKI-1 renal
# MALME-3M melanoma = test system: MALME-3M melanoma
# NCI-H226 lung = test system: NCI-H226 lung
# EKVX NSCLC = test system: EKVX NSCLC
# SF-539 CNS = test system: SF-539 CNS
smiles,measurement,setting,value
C=C1C(=O)O[C@H]2[C@H]1CC/C(COC(=O)CCCC(=O)OC/C1=C/CC[C@@]3(C)O[C@H]3[C@H]3OC(=O)C(=C)[C@@H]3CC1)=C\CC[C@@]1(C)O[C@@H]21,GI50,HCT-116 colon,1.29 µM
same,TGI,HCT-116 colon,2.57 µM
same,GI50,HOP-92 NSCLC,1.87 µM
same,TGI,HOP-92 NSCLC,3.65 µM
same,GI50,SK-MEL-5 melanoma,2.25 µM
same,TGI,SK-MEL-5 melanoma,5.68 µM
same,GI50,SK-OV-3 ovarian,9.89 µM
same,TGI,SK-OV-3 ovarian,> 100 µM
same,GI50,SNB-75 CNS,2.84 µM
same,TGI,SNB-75 CNS,> 100 µM
same,GI50,HS 578T breast,3.42 µM
same,TGI,HS 578T breast,> 100 µM
same,GI50,SK-MEL-2 melanoma,2.18 µM
same,TGI,SK-MEL-2 melanoma,6.5 µM
same,GI50,RPMI-8226 leukemia,0.362 µM
same,TGI,RPMI-8226 leukemia,1.5 µM
same,GI50,COLO 205 colon,0.592 µM
same,TGI,COLO 205 colon,2.15 µM
same,GI50,M14 melanoma,1.72 µM
same,TGI,M14 melanoma,4.51 µM
same,GI50,NCI/ADR-RES ovarian,4.63 µM
same,TGI,NCI/ADR-RES ovarian,> 100 µM
same,GI50,T-47D breast,1.19 µM
same,TGI,T-47D breast,3.81 µM
same,GI50,HCT-15 colon,0.814 µM
same,TGI,HCT-15 colon,2.35 µM
same,GI50,NCI-H460 lung,3.18 µM
same,TGI,NCI-H460 lung,12.7 µM
same,GI50,SF-268 CNS,2.77 µM
same,TGI,SF-268 CNS,15.1 µM
same,GI50,SW-620 colon,0.608 µM
same,TGI,SW-620 colon,2.04 µM
same,GI50,MDA-MB-435,1.69 µM
same,TGI,MDA-MB-435,5.18 µM
same,GI50,IGROV1 ovarian,1.66 µM
same,TGI,IGROV1 ovarian,4.54 µM
same,GI50,MDA-MB-231 breast,1.39 µM
same,TGI,MDA-MB-231 breast,2.9 µM
same,GI50,NCI-H23 lung,2.28 µM
same,TGI,NCI-H23 lung,6.67 µM
same,GI50,SNB-19 CNS,2.91 µM
same,TGI,SNB-19 CNS,14.4 µM
same,GI50,HT29 colon,0.752 µM
same,TGI,HT29 colon,2.16 µM
same,GI50,A549 NSCLC,4.46 µM
same,TGI,A549 NSCLC,41.7 µM
same,GI50,U251 CNS,2.92 µM
same,TGI,U251 CNS,10.3 µM
same,GI50,UO-31 renal,1.11 µM
same,TGI,UO-31 renal,2.31 µM
same,GI50,KM12 colon,2.24 µM
same,TGI,KM12 colon,6.85 µM
same,GI50,HOP-62 NSCLC,3.31 µM
same,TGI,HOP-62 NSCLC,16 µM
same,GI50,NCI-H522 lung,0.678 µM
same,TGI,NCI-H522 lung,2.34 µM
same,GI50,UACC-257 melanoma,2 µM
same,TGI,UACC-257 melanoma,4.97 µM
same,GI50,LOX IMVI melanoma,1.04 µM
same,TGI,LOX IMVI melanoma,2.31 µM
same,GI50,CCRF-CEM leukemia,0.281 µM
same,TGI,CCRF-CEM leukemia,0.757 µM
same,GI50,A498 renal,5.58 µM
same,TGI,A498 renal,19 µM
same,GI50,786-0 renal,1.35 µM
same,TGI,786-0 renal,2.79 µM
same,GI50,SN12C renal,2.3 µM
same,TGI,SN12C renal,6.92 µM
same,GI50,HCC-2998 colon,2.07 µM
same,TGI,HCC-2998 colon,4.22 µM
same,GI50,DU-145 prostate,1.45 µM
same,TGI,DU-145 prostate,2.77 µM
same,GI50,PC-3 prostate,2.86 µM
same,TGI,PC-3 prostate,8.37 µM
same,GI50,TK-10 renal,1.53 µM
same,TGI,TK-10 renal,3.04 µM
same,GI50,BT-549 breast,1.37 µM
same,TGI,BT-549 breast,2.95 µM
same,GI50,OVCAR-3 ovarian,0.401 µM
same,TGI,OVCAR-3 ovarian,1.52 µM
same,GI50,SF-295 CNS,4.71 µM
same,TGI,SF-295 CNS,> 100 µM
same,GI50,ACHN renal,0.764 µM
same,TGI,ACHN renal,2.03 µM
same,GI50,HL-60(TB) leukemia,0.274 µM
same,TGI,HL-60(TB) leukemia,1.39 µM
same,GI50,UACC-62 melanoma,1.54 µM
same,TGI,UACC-62 melanoma,4.53 µM
same,GI50,SR leukemia,0.501 µM
same,TGI,SR leukemia,3.45 µM
same,GI50,MOLT-4 leukemia,0.396 µM
same,TGI,MOLT-4 leukemia,2.07 µM
same,GI50,MCF7 breast,0.5 µM
same,TGI,MCF7 breast,2.43 µM
COc1ccc(N2CCN(C(=O)c3ccc(C(F)(F)F)nc3Nc3cc(Cl)ccc3C)CC2)cc1,GI50,HCT-116 colon,6.38 µM
same,TGI,HCT-116 colon,19 µM
same,GI50,HOP-92 NSCLC,1.49 µM
same,TGI,HOP-92 NSCLC,7.97 µM
same,GI50,SK-MEL-5 melanoma,8.02 µM
same,TGI,SK-MEL-5 melanoma,20.8 µM
same,GI50,SK-OV-3 ovarian,4.67 µM
same,TGI,SK-OV-3 ovarian,22.1 µM
same,GI50,SNB-75 CNS,3.66 µM
same,TGI,SNB-75 CNS,22.6 µM
same,GI50,HS 578T breast,4.09 µM
same,TGI,HS 578T breast,22.1 µM
same,GI50,SK-MEL-2 melanoma,0.949 µM
same,TGI,SK-MEL-2 melanoma,19 µM
same,GI50,RPMI-8226 leukemia,7.46 µM
same,TGI,RPMI-8226 leukemia,49.2 µM
same,GI50,COLO 205 colon,11.4 µM
same,TGI,COLO 205 colon,26.2 µM
same,GI50,M14 melanoma,10.6 µM
same,TGI,M14 melanoma,22.6 µM
same,GI50,NCI/ADR-RES ovarian,10.1 µM
same,TGI,NCI/ADR-RES ovarian,27.3 µM
same,GI50,T-47D breast,2.8 µM
same,TGI,T-47D breast,26.2 µM
same,GI50,HCT-15 colon,7.71 µM
same,TGI,HCT-15 colon,21.2 µM
same,GI50,NCI-H460 lung,6.11 µM
same,TGI,NCI-H460 lung,21 µM
same,GI50,SF-268 CNS,7.04 µM
same,TGI,SF-268 CNS,22.4 µM
same,GI50,SW-620 colon,10.5 µM
same,TGI,SW-620 colon,22.4 µM
same,GI50,MDA-MB-435,11.2 µM
same,TGI,MDA-MB-435,27.5 µM
same,GI50,IGROV1 ovarian,0.0509 µM
same,TGI,IGROV1 ovarian,20.3 µM
same,GI50,MDA-MB-231 breast,4.09 µM
same,TGI,MDA-MB-231 breast,15.6 µM
same,GI50,OVCAR-8 ovarian,11.3 µM
same,TGI,OVCAR-8 ovarian,38.7 µM
same,GI50,NCI-H23 lung,9.12 µM
same,TGI,NCI-H23 lung,23.9 µM
same,GI50,SK-MEL-28 melanoma,14 µM
same,TGI,SK-MEL-28 melanoma,30.3 µM
same,GI50,OVCAR-4 ovarian,7.83 µM
same,TGI,OVCAR-4 ovarian,29.9 µM
same,GI50,SNB-19 CNS,9.17 µM
same,TGI,SNB-19 CNS,22.5 µM
same,GI50,K-562 leukemia,4.76 µM
same,TGI,K-562 leukemia,22.8 µM
same,GI50,HT29 colon,4.45 µM
same,TGI,HT29 colon,18 µM
same,GI50,OVCAR-5 ovarian,10.6 µM
same,TGI,OVCAR-5 ovarian,25.1 µM
same,GI50,CAKI-1 renal,1.38 µM
same,TGI,CAKI-1 renal,8.36 µM
same,GI50,A549 NSCLC,10.2 µM
same,TGI,A549 NSCLC,27.7 µM
same,GI50,U251 CNS,9.37 µM
same,TGI,U251 CNS,21.2 µM
same,GI50,UO-31 renal,1.69 µM
same,TGI,UO-31 renal,10.9 µM
same,GI50,KM12 colon,6.91 µM
same,TGI,KM12 colon,20.8 µM
same,GI50,MALME-3M melanoma,10.6 µM
same,TGI,MALME-3M melanoma,28.4 µM
same,GI50,HOP-62 NSCLC,13.2 µM
same,TGI,HOP-62 NSCLC,25.9 µM
same,GI50,NCI-H522 lung,3.38 µM
same,TGI,NCI-H522 lung,22.3 µM
same,GI50,UACC-257 melanoma,10.7 µM
same,TGI,UACC-257 melanoma,28.3 µM
same,GI50,LOX IMVI melanoma,10.4 µM
same,TGI,LOX IMVI melanoma,22.1 µM
same,GI50,CCRF-CEM leukemia,8.79 µM
same,TGI,CCRF-CEM leukemia,38.5 µM
same,GI50,A498 renal,6.01 µM
same,TGI,A498 renal,19.8 µM
same,GI50,786-0 renal,4.47 µM
same,TGI,786-0 renal,16.8 µM
same,GI50,SN12C renal,11.8 µM
same,TGI,SN12C renal,24.4 µM
same,GI50,DU-145 prostate,14.7 µM
same,TGI,DU-145 prostate,31 µM
same,GI50,PC-3 prostate,5.44 µM
same,TGI,PC-3 prostate,32.7 µM
same,GI50,TK-10 renal,15 µM
same,TGI,TK-10 renal,34.6 µM
same,GI50,BT-549 breast,10.2 µM
same,TGI,BT-549 breast,23.7 µM
same,GI50,OVCAR-3 ovarian,2.98 µM
same,TGI,OVCAR-3 ovarian,19 µM
same,GI50,SF-295 CNS,9.78 µM
same,TGI,SF-295 CNS,27.9 µM
same,GI50,ACHN renal,7.78 µM
same,TGI,ACHN renal,31.1 µM
same,GI50,NCI-H226 lung,14.3 µM
same,TGI,NCI-H226 lung,36.3 µM
same,GI50,HL-60(TB) leukemia,6.94 µM
same,TGI,HL-60(TB) leukemia,28.6 µM
same,GI50,EKVX NSCLC,2.67 µM
same,TGI,EKVX NSCLC,21.1 µM
same,GI50,UACC-62 melanoma,8.15 µM
same,TGI,UACC-62 melanoma,20.8 µM
same,GI50,SR leukemia,4.65 µM
same,TGI,SR leukemia,39 µM
same,GI50,SF-539 CNS,10.7 µM
same,TGI,SF-539 CNS,24.7 µM
same,GI50,MOLT-4 leukemia,4.49 µM
same,TGI,MOLT-4 leukemia,29.6 µM
same,GI50,MCF7 breast,2.88 µM
same,TGI,MCF7 breast,21 µM
